Paper PMC11904993, “Humanized Candida and NanoBiT Assays Expedite Discovery of Bdf1 Bromodomain Inhibitors With Antifungal Potential” (Advanced Science, 2025)
“And” between values parts separate entries of the source, which are not always exact repeats. Equal values may be shown once.

Test system: C. glabrata strains (WT, pdr1∆ or PDR1 rescue)
Experiment: Growth assays to assess compound efflux
Type: cell-based
Conditions: for growth (Figure S10A): three replicates
Description: Cells from a single colony were diluted in 0.85% NaCl before being counted using a Neubauer chamber. […] The effect of fluconazole was tested by titration on these strains under similar conditions.

## OC(Cn1cncn1)(Cn1cncn1)c1ccc(F)cc1F [fluconazole]
Cg101 pdr1Δ mut, Fluconazole 0.5 µg/mL
  growth (Figure S10A): 21% and 19% and 15%
Cg101 pdr1Δ mut, Fluconazole 1 µg/mL
  growth (Figure S10A): 12% and 11% and 6%
Cg101 pdr1Δ mut, Fluconazole 2 µg/mL
  growth (Figure S10A): 6% (2×) and 2%
Cg101 pdr1Δ mut, Fluconazole 4 µg/mL
  growth (Figure S10A): 6% and 3% and 2%
Cg102 pdr1 rescue, Fluconazole 0.5 µg/mL
  growth (Figure S10A): 55% and 61% and 53%
Cg102 pdr1 rescue, Fluconazole 1 µg/mL
  growth (Figure S10A): 36% and 35% and 25%
Cg102 pdr1 rescue, Fluconazole 2 µg/mL
  growth (Figure S10A): 14% and 19% and 18%
Cg102 pdr1 rescue, Fluconazole 4 µg/mL
  growth (Figure S10A): 5% and 9% and 6%
Cg103 PDR1 WT, Fluconazole 0.5 µg/mL
  growth (Figure S10A): 57% and 60% and 48%
Cg103 PDR1 WT, Fluconazole 1 µg/mL
  growth (Figure S10A): 24% (2×) and 33%
Cg103 PDR1 WT, Fluconazole 2 µg/mL
  growth (Figure S10A): 13% and 12% and 14%
Cg103 PDR1 WT, Fluconazole 4 µg/mL
  growth (Figure S10A): 6% and 5% (2×)
titration, pdr1Δ versus WT and rescue strains
  sensitivity upon deletion of PDR1: enhanced
